ChEMBL document CHEMBL1914284, “Pyrazinamide, but not pyrazinoic acid, is a competitive inhibitor of NADPH binding to Mycobacterium tuberculosis fatty acid synthase I” (Bioorg Med Chem Lett, 2011)
Activity calls are given as the source filed them. The calls are words filed in the database; no cut-off is given here.

What was measured:
[1] = tested on: Mycobacterium tuberculosis; assay: Binding affinity to Mycobacterium tuberculosis fatty acid synthase 1 at 350 uM by STD NMR spectrophotometric assay
[2] = tested on: Mycobacterium tuberculosis; assay: Binding affinity to Mycobacterium tuberculosis fatty acid synthase 1 at 500 uM by STD NMR spectrophotometric assay
[3] = tested on: Mycobacterium tuberculosis; assay: Binding affinity to Mycobacterium tuberculosis fatty acid synthase 1 at 8 mM by STD NMR spectrophotometric assay
[4] = Binding affinity to Mycobacterium tuberculosis fatty acid synthase 1 by STD NMR spectrophotometric analysis in presence of increasing concentration of NADPH
[5] = Competitive inhibition of Mycobacterium tuberculosis fatty acid synthase 1 assessed as inhibition of NADPH oxidation by STD NMR spectrophotometric analysis

Which Activity [1] does the source give for `C/C=C/C/C=C/CCC(=O)[C@H]1O[C@H]1C(N)=O` here?
Its Activity is “Active”.

For `CC[C@@H](CO)NCCN[C@@H](CC)CO`, which Activity [2] is on record?
The Activity was “inactive”.

For `O=C(O)c1cnccn1`, which Activity [3] is on record?
The Activity was “Active”.

For `NC(=O)c1cnccn1` [PYRAZINAMIDE], which Activity [3] is on record?
The Activity was “Active”.

And the Kd [4]?
The Kd was 70 µM.

What about the Ki [5] of the same compound?
The Ki was 41 µM.
